Test results: ChEMBL document CHEMBL1806435, “Discovery of bacterial NAD+-dependent DNA ligase inhibitors: optimization of antibacterial activity” (Bioorg Med Chem Lett, 2011)
pIC50: −log10 of the molar value. Converted amounts (≈) assume the structure as drawn.

Assays:
[1] = tested on: Staphylococcus aureus; test: Antibacterial activity against Staphylococcus aureus; format: functional
[2] = Inhibition of Streptococcus pneumoniae LigA by FRET-based assay
[3] = Inhibition of Staphylococcus aureus LigA by FRET-based assay
[4] = tested on: Streptococcus pneumoniae; test: Antibacterial activity against Streptococcus pneumoniae; format: functional
[5] = Plasma protein binding in human assessed as fraction unbound by equilibrium dialysis method; format: ADME, cell-free
[6] = Lipophilicity, log D of the compound in octanol buffer at pH 7.4 by shake flask method; format: physicochemical
[7] = Inhibition of Escherichia coli LigA by FRET-based assay
[8] = tested on: Haemophilus influenzae; test: Antibacterial activity against efflux pump-deficient Haemophilus influenzae; format: functional
[9] = target: DNA ligase 1 (Homo sapiens, UniProt P18858); test: Inhibition of human DNA Ligase I by FRET-based assay
[10] = Inhibition of […] LigA by FRET-based assay; parameters: species or system Haemophilus influenzae
[11] = Equilibrium solubility of the compound; format: physicochemical
[12] = Apparent permeability from apical to basolateral side in human Caco2 cells; format: ADME, cell-based; details: Caco-2

DNA ligase 1, sequence (P18858 whole entry): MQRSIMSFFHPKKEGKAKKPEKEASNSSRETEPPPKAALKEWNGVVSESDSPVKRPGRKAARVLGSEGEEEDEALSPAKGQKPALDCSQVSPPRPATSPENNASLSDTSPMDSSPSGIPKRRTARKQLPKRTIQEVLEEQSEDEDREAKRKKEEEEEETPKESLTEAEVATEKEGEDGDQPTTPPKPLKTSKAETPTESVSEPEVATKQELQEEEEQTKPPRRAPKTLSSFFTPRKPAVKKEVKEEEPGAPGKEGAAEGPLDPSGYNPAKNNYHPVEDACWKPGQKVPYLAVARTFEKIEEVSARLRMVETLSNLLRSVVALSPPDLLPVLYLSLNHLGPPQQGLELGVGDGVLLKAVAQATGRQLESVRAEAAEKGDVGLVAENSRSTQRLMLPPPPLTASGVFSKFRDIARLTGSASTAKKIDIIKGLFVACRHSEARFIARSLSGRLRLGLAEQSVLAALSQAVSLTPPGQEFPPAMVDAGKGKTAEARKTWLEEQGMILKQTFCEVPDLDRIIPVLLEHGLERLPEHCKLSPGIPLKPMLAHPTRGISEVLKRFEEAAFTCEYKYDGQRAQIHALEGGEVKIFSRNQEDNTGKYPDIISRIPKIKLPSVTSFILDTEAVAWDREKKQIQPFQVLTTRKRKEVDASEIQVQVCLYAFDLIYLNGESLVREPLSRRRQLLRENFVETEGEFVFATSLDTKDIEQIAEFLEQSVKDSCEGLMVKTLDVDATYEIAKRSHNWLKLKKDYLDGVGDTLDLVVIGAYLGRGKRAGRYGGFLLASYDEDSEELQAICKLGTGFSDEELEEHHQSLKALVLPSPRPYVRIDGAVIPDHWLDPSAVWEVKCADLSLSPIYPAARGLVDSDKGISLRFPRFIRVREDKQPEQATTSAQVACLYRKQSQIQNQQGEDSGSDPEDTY

SMILES	MIC [1] [µg/mL]	pIC50 [2]	pIC50 [3]	MIC [4] [µg/mL]	fraction unbound [5]	logD [6]	pIC50 [7]	MIC [8] [µg/mL]	pIC50 [9]	pIC50 [10]	solubility thermodynamic [11] [µM]	Papp A→B [12] [×10⁻⁶ cm/s]
Nc1nc(OCC2(CO)CC2)nc2c1ncn2[C@@H]1O[C@H](CF)[C@@H](O)[C@H]1O	> 64	6.40	6.43	> 64	–	–	–	–	–	–	–	–
Nc1nc(OCc2nccs2)nc2c1ncn2[C@@H]1O[C@H](CF)[C@@H](O)[C@H]1O	> 64	6.06	6.04	64 (≈ 167 µM)	–	–	–	–	–	–	–	–
[N-]=[N+]=N[C@@H]1[C@@H](O)[C@H](n2cnc3c(N)nc(OC4CCCC4)nc32)O[C@@H]1CF	8 (≈ 21.1 µM)	7.15	7.05	0.5 (≈ 1.32 µM)	0.19	2.65	–	–	–	–	–	–
CCCCSc1nc(N)c2ncn([C@@H]3O[C@H](CO)[C@@H](O)[C@H]3O)c2n1	> 64	6.85	7.10	32 (≈ 90 µM)	0.003	–	5.90	32 (≈ 90 µM)	< 3.70	6.29	–	–
C[C@H]1O[C@@H](n2cnc3c(N)nc(OC4CCCC4)nc32)[C@H](O)[C@H]1Cl	8 (≈ 22.6 µM)	7.40	7.40	4 (≈ 11.3 µM)	–	3.18	–	–	–	–	304 (≈ 108 µg/mL)	–
Nc1nc(OC2CCCC2)nc2c1ncn2[C@@H]1O[C@H](CF)[C@@H](O)[C@H]1O	16 (≈ 45.3 µM)	6.92	6.92	4 (≈ 11.3 µM)	–	–	–	–	–	–	–	–
C[C@H]1O[C@@H](n2cnc3c(N)nc(OC4CC5CC5C4)nc32)[C@H](O)[C@@H]1O (some centres undefined)	4 (≈ 11.5 µM)	7.22	6.89	2 (≈ 5.76 µM)	–	–	–	–	–	–	–	–
C[C@H]1O[C@@H](n2cnc3c(N)nc(Oc4ccccc4)nc32)[C@H](O)[C@@H]1O	64 (≈ 186 µM)	5.57	6.85	64 (≈ 186 µM)	–	–	–	–	–	–	–	–
Nc1nc(OCC2CCC2)nc2c1ncn2[C@@H]1O[C@H](CF)[C@@H](O)[C@H]1O	8 (≈ 22.6 µM)	7.30	7.22	2 (≈ 5.66 µM)	–	–	–	–	–	–	–	–
CCCCSc1nc(N)c2ncn([C@@H]3O[C@H](C)[C@@H](O)[C@H]3O)c2n1	64 (≈ 189 µM)	6.89	6.77	8 (≈ 23.6 µM)	–	–	–	–	–	–	–	–
Nc1nc(OC2CCCC2)nc2c1ncn2[C@@H]1O[C@H](CO)[C@H](Cl)[C@H]1O	8 (≈ 21.6 µM)	7.10	6.96	8 (≈ 21.6 µM)	–	–	–	–	–	–	–	–
C[C@H]1O[C@@H](n2cnc3c(N)nc(OCC4CC45CC5)nc32)[C@H](O)[C@H]1Cl (some centres undefined)	1 (≈ 2.73 µM)	7.70	7.52	0.5 (≈ 1.37 µM)	0.04	3.7	–	–	–	–	21 (≈ 7.68 µg/mL)	–
Nc1nc(SC2CCCC2)nc2c1ncn2[C@@H]1O[C@H](CO)[C@@H](O)[C@H]1O	32 (≈ 87.1 µM)	6.36	6.42	16 (≈ 43.5 µM)	–	–	–	–	–	–	–	–
C[C@H]1O[C@@H](n2cnc3c(N)nc(OCC4CC45CC5)nc32)[C@H](O)[C@@H]1O (some centres undefined)	2 (≈ 5.76 µM)	7.40	7.22	1 (≈ 2.88 µM)	0.25	1.78	–	–	–	–	801 (≈ 278 µg/mL)	–
Nc1nc(OC2CCCC2)nc2c1ncn2[C@@H]1O[C@H](CO)[C@@H](O)[C@H]1O	64 (≈ 182 µM)	6.82	6.37	16 (≈ 45.5 µM)	0.66	–	–	–	–	–	–	–
C[C@H]1O[C@@H](n2cnc3c(N)nc(O[C@H]4CC[C@H](C)CC4)nc32)[C@H](O)[C@@H]1O	2 (≈ 5.5 µM)	7.30	6.80	1 (≈ 2.75 µM)	0.27	2.35	–	–	–	–	934 (≈ 339 µg/mL)	–
C[C@H]1O[C@@H](n2cnc3c(N)nc(OC4CCCC4)nc32)[C@H](O)[C@@H]1O	8 (≈ 23.9 µM)	7.10	6.92	2 (≈ 5.96 µM)	–	–	–	–	–	–	–	7.26
C[C@H]1O[C@@H](n2cnc3c(N)nc(OC4CCCC4)nc32)[C@H](O)[C@@H]1OCc1ccc(Cl)c(Cl)c1	8 (≈ 16.2 µM)	> 8.00	6.89	0.5 (≈ 1.01 µM)	–	> 3.5	–	–	–	–	< 1	–
